One experiment deals with T1, NAMPT (Homo sapiens, UniProt P43490).
T1 construct: His tag; host or cells: E. coli
In words: Biochemical inhibition assay: NAMPT enzymatic reaction, NMN quantified by mass spectrometry. Particulars: read-out: Biochem IC50. Here is the method: Biochemical Inhibition Assay
NAMPT Protein Purification
Recombinant His-tagged NAMPT was produced in E. coli cells, purified over a Ni column, and further purified over a size-exclusion column by XTAL Biostructures.
The NAMPT Enzymatic Reaction
The NAMPT enzymatic reactions were carried out in Buffer A (50 mM Hepes pH 7.5, 50 mM NaCl, 5 mM MgCl2, and 1 mM THP) in 96-well V-bottom plates. The compound titrations were performed in a separate dilution plate by serially diluting the compounds in DMSO to make a 100× stock. […] The compound and enzyme mix was incubated for 15 minutes at room temperature, then 10 μL of 10× substrate and co-factors in Buffer A were added to the test well to make a final concentration of 1 μM NAM, 100 μM 5-Phospho-D-ribose 1-diphosphate (PRPP), and 2.5 mM Adenosine 5′-triphosphate (ATP). The reaction was allowed to proceed for 30 minutes at room temperature, then was quenched with the addition of 11 μL of a solution of formic acid and L-Cystathionine to make a final concentration of 1% formic acid and 10 μM L-Cystathionine. Background and signal strength was determined by addition (or non-addition) of a serial dilution of NMN to a pre-quenched enzyme and cofactor mix.
A mass spectrometry-based assay was used to measure the NAMPT reaction product (NMN) and the internal control (L-Cystathionine). NMN and L-Cystathionine were detected using the services of Biocius Lifesciences with the RapidFire system. In short, the NMN and L-Cystathionine are bound to a graphitic carbon cartridge in 0.1% formic acid, eluted in 30% acetonitrile buffer, and injected into a Sciex 4000 mass spectrometer. The components of the sample were ionized with electrospray ionization and the positive ions were detected. […] The fragments are quantified and the analyzed by the following method.
First the NMN signal is normalized to the L-Cystathionine signal by dividing the NMN signal by the L-Cystathionine signal for each well. The signal from the background wells are averaged and subtracted from the test plates. […] IC50s are Determined Using Excel and this Formula.

The test system of another experiment is A2780 cells. The experiment in a line: In-vitro cell proliferation assay (SRB), A2780 cells. Particulars: Homo sapiens, A2780, 72 h, A2780 cells, 72 hours, read-out: A2780 IC50. Format: cell-based. Here is the method:
In-Vitro Cell Proliferation Assay
After overnight incubation at 37° C. and 5% CO2, the compound titrations were performed in a separate dilution plate by serially diluting the compounds in DMSO to make a 1000× stock. The compounds were then further diluted to 10× final concentration in culture media, whereupon 20 μL of each dilution was added to the plated cells with controls (e.g. DMSO and blank) to make a final volume of 200 μL. The final DMSO concentration in each well was 0.1%. The plates were then incubated for 72 hours at 37° C. in a 5% CO2 incubator. The number of viable cells was then assessed using sulforhodamine B (SRB) assay. Cells were fixed at 4° C. for 1 hour with the addition of 50 μL 30% trichloroacetic acid (TCA) to make a final concentration of 6% TCA. The plates were washed four times with H2O and allowed to dry for at least 1 hour, whereupon 100 μL of a 4% SRB in 1% acetic acid solution was added to each well and incubated at room temperature for at least 30 minutes. The plates were then washed three times with 1% acetic acid, dried, and treated with 100 μL of 10 mM Tris-Base solution. The plates were then read in a microplate reader at an absorbance of 570 nm. Background was generated on a separate plate with media only.
Method for Determining % Inhibition
First, the signals from the background plate are averaged, then the background was subtracted from the test plates.
wherein X denotes the compound concentration 1, Y denotes the compound concentration 2, XX denotes the % inhibition at compound concentration 1 (X), and YY denotes the % inhibition at compound concentration 2 (Y).

Like-named read-outs stand apart in the source and are kept apart here.

Drawing on US12336981B2, “Compounds and compositions for the inhibition of NAMPT” (Valo Health, Inc., priority 2010, dated 2025), this text covers IC50 for 32 compounds.

A word on the IC50: it is the concentration that inhibits the measured activity by half.

T1 sequence (P43490 whole entry): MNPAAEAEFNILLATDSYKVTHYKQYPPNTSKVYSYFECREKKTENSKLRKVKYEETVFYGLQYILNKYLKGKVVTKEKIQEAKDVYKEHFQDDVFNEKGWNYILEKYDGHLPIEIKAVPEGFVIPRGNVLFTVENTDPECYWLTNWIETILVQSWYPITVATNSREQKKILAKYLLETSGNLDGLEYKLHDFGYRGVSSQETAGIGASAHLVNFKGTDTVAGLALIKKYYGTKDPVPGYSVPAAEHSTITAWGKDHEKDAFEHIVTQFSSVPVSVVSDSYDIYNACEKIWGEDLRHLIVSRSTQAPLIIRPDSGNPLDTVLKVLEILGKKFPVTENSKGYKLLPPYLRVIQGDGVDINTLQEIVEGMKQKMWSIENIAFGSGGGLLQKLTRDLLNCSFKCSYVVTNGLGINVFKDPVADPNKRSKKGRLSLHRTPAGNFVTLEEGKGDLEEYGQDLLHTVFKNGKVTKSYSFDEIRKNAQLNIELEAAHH

Regarding `COc1cc(S(=O)(=O)c2ccc(CNC(=O)c3cc4ccncc4s3)cc2)ccc1C`, the IC50 on NAMPT (NAMPT enzymatic reaction) was 2.7 nM; in the experiment on A2780 cells (SRB), 1.5 nM.

With `CC(C)CNC(=O)c1cccc(S(=O)(=O)c2ccc(CNC(=O)c3cc4ccncc4s3)cc2)c1` [N-{[4-({3-[(2-methylpropyl)carbamoyl]benzene}sulfonyl)phenyl]methyl}thieno[2,3-c]pyridine-2-carboxamide], the IC50 on NAMPT (NAMPT enzymatic assay) is 5.2 nM; with A2780 cells (SRB) it was 14.5 nM.

On to `O=C(NCc1ccc(S(=O)(=O)c2cccc(N3CCCC3)c2)cc1)c1ccc2nccn2c1`, for which the IC50 at NAMPT (NAMPT enzymatic assay) was 13.6 nM; in the experiment with A2780 cells (SRB), 1.6 nM. In the case of `O=C(NCc1ccc(S(=O)(=O)c2cc(F)cc(C(F)(F)F)c2)cc1)c1cc2cnccc2[nH]1`, the IC50 came to 26.2 nM on NAMPT (NAMPT enzymatic assay) and 3.6 nM in the experiment with A2780 cells (SRB). In the same order, the values of `Cn1ncc2c(S(=O)(=O)c3ccc(CNC(=O)c4cc5ccncc5o4)cc3)cccc21` [N-{[4-(1-methyl-1H-indazole-4-sulfonyl)phenyl]methyl}furo[2,3-c]pyridine-2-carboxamide] are 9.2 nM and 3.6 nM. `O=C(NCc1ccc(S(=O)(=O)CCCc2ccccc2)cc1)c1cc2cnccc2[nH]1` [N-({4-[(3-phenylpropane)sulfonyl]phenyl}methyl)-1H-pyrrolo[3,2-c]pyridine-2-carboxamide]: the IC50 came to 14 nM on NAMPT (NAMPT enzymatic reaction) and 78 nM in the experiment with A2780 cells (SRB).

Consider `CCCOc1ccc(Cl)cc1S(=O)(=O)c1ccc(CNC(=O)c2cc3ccncc3s2)cc1`, for which the results for the IC50 on NAMPT (NAMPT enzymatic reaction) and in the experiment on A2780 cells (SRB) were 5.7 nM and 1.2 nM, respectively.

As for `Cn1ncc2c(S(=O)(=O)c3ccc(CNC(=O)c4cc5cc(O)ccc5[nH]4)cc3)cccc21` [5-hydroxy-N-{[4-(1-methyl-1H-indazole-4-sulfonyl)phenyl]methyl}-1H-indole-2-carboxamide], the IC50 on NAMPT (NAMPT enzymatic reaction) is 100 to 1000 nM; with A2780 cells (SRB), more than 1000 nM. In the same order, the values of `CCOc1ccc(S(=O)(=O)c2ccc(CNC(=O)c3cnc4nccn4c3)cc2)cc1` are 2 nM and 6.1 nM. In the case of `CCC[C@@H](O)c1ccc(S(=O)(=O)c2ccc(CNC(=O)c3cnc4nccn4c3)cc2)cc1`, the results for the IC50 at NAMPT (NAMPT enzymatic assay) and with A2780 cells (SRB) were 4.8 nM and 14.2 nM, respectively. Consider `CCCOc1ccc(S(=O)(=O)c2ccc(CNC(=O)c3cc4ccncc4o3)cc2)c(C)c1`, for which the IC50 at NAMPT (NAMPT enzymatic reaction) is 22.5 nM; in the experiment with A2780 cells (SRB) it was 59.6 nM. For the compound `O=C(NCc1ccc(S(=O)(=O)c2ccc(C(F)F)c(F)c2)cc1)c1cnc2nccn2c1` [N-[(4-{[4-(difluoromethyl)-3-fluorobenzene]sulfonyl}phenyl)methyl]imidazo[1,2-a]pyrimidine-6-carboxamide], the IC50 at NAMPT (NAMPT enzymatic assay) was determined as 8.2 nM; in the experiment on A2780 cells (SRB), 27.9 nM. Consider `O=C(NCc1ccc(S(=O)(=O)c2ccc(N3CCOCC3)nc2)cc1)c1cc2cnccc2[nH]1` [N-({4-[6-(morpholin-4-yl)pyridine-3-sulfonyl]phenyl}methyl)-1H-pyrrolo[3,2-c]pyridine-2-carboxamide], for which the IC50 at NAMPT (NAMPT enzymatic assay) was determined as 9.6 nM; in the experiment on A2780 cells (SRB), 1.5 nM. Consider `COc1ccc2cc(S(=O)(=O)c3ccc(CNC(=O)c4cc5ccncc5o4)cc3)ccc2c1` [N-{[4-(6-methoxynaphthalene-2-sulfonyl)phenyl]methyl}furo[2,3-c]pyridine-2-carboxamide], for which the IC50 at NAMPT (NAMPT enzymatic assay) was found to be 3 nM; in the experiment with A2780 cells (SRB) it was 3.6 nM. In the same order, the values of `O=C(NCc1ccc(S(=O)(=O)c2cccc(N3CCCC3)c2)cc1)c1cc2cnccc2[nH]1` are 13.4 nM and 2.8 nM.

Take `Cc1ccc(S(=O)(=O)c2ccc(CNC(=O)c3cc4ccncc4s3)cc2)c(C)c1` [N-({4-[(2,4-dimethylbenzene)sulfonyl]phenyl}methyl)thieno[2,3-c]pyridine-2-carboxamide]: the values for the IC50 at NAMPT (NAMPT enzymatic assay) and in the experiment with A2780 cells (SRB) were 12 nM and 22.2 nM, respectively.

For the compound `Cn1ncc(S(=O)(=O)c2ccc(CNC(=O)c3cnc4nccn4c3)cc2)c1C(F)(F)F` [N-({4-[1-methyl-5-(trifluoromethyl)-1H-pyrazole-4-sulfonyl]phenyl}methyl)imidazo[1,2-a]pyrimidine-6-carboxamide], the figures for the IC50 on NAMPT (NAMPT enzymatic assay) and with A2780 cells (SRB) were 4 nM and 67.9 nM, respectively.

As to `O=C(NCc1ccc(S(=O)(=O)c2ccc3nc(C(F)(F)F)cn3c2)cc1)c1cc2ccncc2o1` [N-({4-[2-(trifluoromethyl)imidazo[1,2-a]pyridine-6-sulfonyl]phenyl}methyl)furo[2,3-c]pyridine-2-carboxamide], the IC50 at NAMPT (NAMPT enzymatic assay) was found to be 21.2 nM; with A2780 cells (SRB), 11.9 nM. `COc1ccc(Cl)c(S(=O)(=O)c2ccc(CNC(=O)c3cc4cnccc4[nH]3)cc2)c1`: the IC50 worked out at 11 nM at NAMPT (NAMPT enzymatic reaction) and 9.7 nM with A2780 cells (SRB). `O=C(NCc1ccc(S(=O)(=O)c2cnn(-c3cccc(Cl)c3)c2)cc1)c1cc2ccncc2o1` [N-({4-[1-(3-chlorophenyl)-1H-pyrazole-4-sulfonyl]phenyl}methyl)furo[2,3-c]pyridine-2-carboxamide]: the IC50 at NAMPT (NAMPT enzymatic assay) came to 11.6 nM; with A2780 cells (SRB), 14 nM. As for `O=C(NCc1ccc(S(=O)(=O)c2ccc(Cl)c(Cl)c2)cc1)c1cc2ccncc2o1`, the IC50 on NAMPT (NAMPT enzymatic reaction) is 10.4 nM; in the experiment with A2780 cells (SRB), 4.8 nM. For the compound `COc1c(C)cc(S(=O)(=O)c2ccc(CNC(=O)c3cnc4[nH]ncc4c3)cc2)cc1C` [N-({4-[(4-methoxy-3,5-dimethylbenzene)sulfonyl]phenyl}methyl)-1H-pyrazolo[3,4-b]pyridine-5-carboxamide], the figures for the IC50 at NAMPT (NAMPT enzymatic reaction) and with A2780 cells (SRB) were 5 nM and 1.85 nM, respectively. For `CCc1ccccc1S(=O)(=O)c1ccc(CNC(=O)c2cnc3[nH]ncc3c2)cc1` [N-({4-[(2-ethylbenzene)sulfonyl]phenyl}methyl)-1H-pyrazolo[3,4-b]pyridine-5-carboxamide], the IC50 on NAMPT (NAMPT enzymatic reaction) came out at 8.4 nM; in the experiment on A2780 cells (SRB), 13 nM. Turning to `CC(C)Oc1ccc(S(=O)(=O)c2ccc(CNC(=O)c3cc4ccncc4o3)cc2)cc1`, the half-maximal inhibitory concentration (IC50) on NAMPT (NAMPT enzymatic assay) came out at 6.8 nM; in the experiment with A2780 cells (SRB) it was 5.7 nM.

In the case of `Cc1c(F)cccc1S(=O)(=O)c1ccc(CNC(=O)c2ccc3nccn3c2)cc1`, the IC50 came to 46.9 nM at NAMPT (NAMPT enzymatic reaction) and 13.2 nM in the experiment with A2780 cells (SRB). Take `CCc1ccccc1S(=O)(=O)c1ccc(CNC(=O)c2cc3ccncc3s2)cc1` [N-({4-[(2-ethylbenzene)sulfonyl]phenyl}methyl)thieno[2,3-c]pyridine-2-carboxamide]: the IC50 on NAMPT (NAMPT enzymatic reaction) turned out to be 5 nM; in the experiment with A2780 cells (SRB assay) it was 2.9 nM. With `O=C(NCc1ccc(S(=O)(=O)c2ccc(Cn3ccnc3)cc2)cc1)c1cc2ccncc2s1`, the IC50 on NAMPT (NAMPT enzymatic assay) was determined as 5.3 nM; in the experiment on A2780 cells (SRB) it was 12.2 nM. Consider `CCCOc1cccc(S(=O)(=O)c2ccc(CNC(=O)c3ccc4nccn4c3)cc2)c1`, for which the IC50 came out at 4.2 nM on NAMPT (NAMPT enzymatic reaction) and 6.3 nM in the experiment with A2780 cells (SRB). `Cc1nc(S(=O)(=O)c2ccc(CNC(=O)c3cc4ccncc4s3)cc2)ccc1F` [N-{[4-(5-fluoro-6-methylpyridine-2-sulfonyl)phenyl]methyl}thieno[2,3-c]pyridine-2-carboxamide]: the IC50 on NAMPT (NAMPT enzymatic assay) stood at 8.3 nM; with A2780 cells (SRB) it was 7.1 nM. On the same counts, the results for `O=C(NCc1ccc(S(=O)(=O)c2cccnc2N2CCOCC2)cc1)c1cc2ccncc2o1` [N-({4-[2-(morpholin-4-yl)pyridine-3-sulfonyl]phenyl}methyl)furo[2,3-c]pyridine-2-carboxamide] are 32.5 nM and 60.5 nM.

With `CC(C)COc1cccc(S(=O)(=O)c2ccc(CNC(=O)c3cc4ccncc4s3)cc2)c1`, the IC50 in the experiment with A2780 cells (SRB) is 25.2 nM.

With `N#CC1(c2ccc(S(=O)(=O)c3ccc(CNC(=O)c4cnc5nccn5c4)cc3)cc2)CCCC1`, the half-inhibitory concentration (IC50) in the experiment with A2780 cells (SRB) stood at 4.7 nM.
